Literature values, collected in patent US20170095484A1, “METHOD OF TREATING RESISTANT NON-HODGKIN LYMPHOMA, MEDULLOBLASTOMA, AND/OR ALK+NON-SMALL CELL LUNG CANCER USING THIENOTRIAZOLODIAZEPINE COMPOUNDS” (ONCOETHIX GMBH, priority 2014, published 2017).
One block for each compound: values may come before it.

Key:
mTOR = mTOR (Homo sapiens, UniProt P42345)
[1] = target: Bruton's tyrosine kinase (BTK) (Homo sapiens, UniProt Q06187); details: in intact cells and in cell-free systems
[2] = test system: Lyn, Syk, PKA, casein kinase I, ERK1, ERK2 and p38 kinase
HDAC = details: isoform not stated

Bruton's tyrosine kinase (BTK), sequence (Q06187 whole entry): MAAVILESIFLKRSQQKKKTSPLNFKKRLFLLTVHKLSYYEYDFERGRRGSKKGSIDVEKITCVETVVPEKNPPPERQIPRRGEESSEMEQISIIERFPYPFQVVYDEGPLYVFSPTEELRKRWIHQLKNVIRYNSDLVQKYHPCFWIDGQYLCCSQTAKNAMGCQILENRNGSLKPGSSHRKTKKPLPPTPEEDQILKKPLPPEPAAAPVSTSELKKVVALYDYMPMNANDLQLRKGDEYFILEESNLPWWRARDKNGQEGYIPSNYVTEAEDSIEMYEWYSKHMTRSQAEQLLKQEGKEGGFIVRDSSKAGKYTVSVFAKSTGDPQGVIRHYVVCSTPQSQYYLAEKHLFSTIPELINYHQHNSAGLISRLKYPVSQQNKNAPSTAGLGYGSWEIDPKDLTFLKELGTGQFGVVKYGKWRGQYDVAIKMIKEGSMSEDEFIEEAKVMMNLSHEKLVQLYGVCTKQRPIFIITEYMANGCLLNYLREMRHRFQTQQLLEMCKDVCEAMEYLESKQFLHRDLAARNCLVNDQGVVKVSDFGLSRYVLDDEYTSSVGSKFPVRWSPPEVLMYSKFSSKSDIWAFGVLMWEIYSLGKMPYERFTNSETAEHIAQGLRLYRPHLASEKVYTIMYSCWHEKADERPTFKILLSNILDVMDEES

IC50 (mTOR): 1.6 to 2.4 nM
Compound: CO[C@H]1C[C@@H]2CC[C@@H](C)[C@@](O)(O2)C(=O)C(=O)N2CCCC[C@H]2C(=O)O[C@H]([C@H](C)C[C@@H]2CC[C@@H](OCCO)[C@H](OC)C2)CC(=O)[C@H](C)/C=C(\C)[C@@H](O)[C@@H](OC)C(=O)[C@H](C)C[C@H](C)/C=C/C=C/C=C/1C [Everolimus]

Compound: CC1=C(O)C(=O)[C@@H]2O[C@@H]2C1=O [Terreic acid]
effect on the catalytic activity of BTK [1]: Inhibits the catalytic activity of BTK | effect on the activities of Lyn, Syk, PKA, casein kinase I, ERK1, ERK2 and p38 kinase [2]: little or no effect | effect on the activity of PKC (PKC): without affecting the activity of PKC

IC50 (HDAC): ~1.8 nM
Compound: Trichostatin A
